The values that follow come from patent US20240294508A1, “RIP1 MODULATORS INCLUDING AZETIDINE CYCLIC UREAS, PREPARATIONS, AND USES THEREOF” (SIRONAX LTD., priority 2021, published 2024).

Usually EC50 stands for the concentration at which the effect is half-maximal.

This assay deals with HT-29 cells. Briefly: HT29 cells 0FBS assay in vitro: TNF-α/SMAC mimetic/zVAD-FMK induced necroptosis, CellTiter-Glo cell viability (RIP1 inhibitory activity). It is filed as cell-based. The conditions noted are these: Homo sapiens, FBS free medium, TNF-α (10 ng/ml) + SMAC mimetic (6 uM) + zVAD-FMK (10 μM), 20 hours, geometric mean EC50. An excerpt: Protocol for HT29 Cells 0FBS Assay In Vitro
• Cell line: HT-29 (ATCC® HTB-38™) • Culture medium: McCOY's 5A, Gibco, Cat No. 16600-082 • FBS, Gibco, Cat No. 10099-141C • Trypsin: Gibco, Cat No. 25200-056 • DMSO: Sigma, Cat No. 67-68-5, 1L • Assay plate: Corning #3903 • Compound dilution plate: Corning #3357 • Inducers: TNFα, GenScript, Cat No. Z01001-50, • SmacM, Cat. No., HY-15989, MedChemExpress (MCE) • Z_VAD FMK, TargetMol, T6013 • Cell Titer-Glo® Luminescent Cell Viability Assay Kit: Promega, Cat No. G7573 • EnVision: PerkinElmer, 2105-0010
2. Cell Seeding of HT-29 Cells
1) HT-29 cells were checked every day to make sure they are healthy and growing as expected. They were split sub-culturing when were approximately 80% confluent.
2) First pre-warm the culture medium of McCOY's 5A medium (Gibco, Cat No. 16600-082) with 10% FBS (Gibco, Cat No. 10099-141C) in 37° C. water bath for at least 30 min.
3) Growing cells to desired level of confluency 80% in a T75 flask, aspirate the medium, and wash with warm PBS two times.
4) Add 2-3 ml fresh warm trypsin (Gibco, Cat No. 25200-056) solution. Transfer the flask to a 37° C. incubator.
5) After 5 minutes, tap the side of the flask, and examine the flask under a microscope for lifting. If necessary, return the cells to the incubator for an additional 5-10 minutes, with occasional tapping, until lifting is complete.
6) Quickly neutralize the trypsin reaction by adding 6-9 ml cell culture medium, then transfer the cells to sterile 15 ml conical tubes. Pellet the cells by centrifugation at 300×g for 7 minutes, then decant the supernatant.
7) Resuspend the cells in fresh cell culture medium. Do cell counting with hemocytometer.
8) Seed 100 μl of 5,000 cells into each well of the sterile 96-well cell culture plate (Corning 3903) and culture overnight at 37° C. with 5% CO2.
3. Compounds Titration and Treatment of HT-29 Cells
1) All batches of compounds (CPDs0 (e.g., compound 1-169) were dissolved in DMSO (Dimethyl sulfoxide) as 20 mM stock solution.
2) Take 3 ul 20 mM stock solution of CPDs to […] DMSO and mix well, continue the titration ratio of 1:3 (20 ul CPDs+40 ul DMSO), e.g., to give solutions of CPDS at 6.6 mM, 2.2 mM, etc., till the 10 points end.
3) Take out assay plates with HT-29 cells from incubator, remove all culture medium then wash 1 time with 1×PBS, and change fresh McCOY's 5A medium of FBS free with a cocktail of TNF-α (10 ng/ml), the SMAC mimetic (6 uM) and zVAD-FMK (10 μM) to stimulate the HT-29 cells to increase pRIPK1 levels and necroptosis.
4) Add 0.5 μL of the diluted compound to the corresponding 96-well assay plates.
5) Incubate the assay plates for 20 hours at 37° C. with 5% CO2.
4. Performing Cell Viability Detection of HT-29 Cells after Treated with Compounds
1) The CellTiter-Glo® Luminescent Cell Viability Assay was employed to detect the ATP levels of viable HT-29 cells.
2) Equilibrate the CellTiter-Glo® buffer and the lyophilized substrate to room temperature prior to use.
3) Resuspend the CellTiter-Glo® substrate with CellTiter-Glo® buffer, mix by gently vortexing to obtain a homogeneous solution.
4) Pipette 20 μl the enzyme/substrate mixture by multi-channel pipette into the 96-well assay plates from step 5) under the Compounds titration and treatment stage.
5) Place the plates on an orbital shaker and mix the contents for 3 minutes to induce cell lysis.
6) Then allow the plates to incubate at room temperature for 10 minutes to stabilize luminescent signal.
7) Read and record luminescence signal with EnVision.
8) The geometric mean EC50 of the compounds were calculated from 10 points response dose with duplicate. In Table 2, activity is provided as follows: +++=0.1 nM≤EC50<100 nM; ++=100 nM≤EC5 1000 nM; […].
In general terms: Cellular ATP, detected with luciferase, serves as a proxy for viable cell number.
Regarding `Cn1ncc(F)c1-c1cc(OC2CN(C(=O)N3N=CC[C@H]3c3cncc(C#N)c3)C2)c(F)cn1` [Compound 46, (S)-5-(1-(3-((5-fluoro-2-(4-fluoro-1-methyl-1H-pyrazol-5-yl)pyridin-4-yl)oxy)azetidine-1-carbonyl)-4,5-dihydro-1H-pyrazol-5-yl)nicotinonitrile], the concentration giving a half-maximal response (EC50) is 0.1 to 100 nM.
With `Cc1c(C#N)nn(C)c1-c1cc(OC2CN(C(=O)N3N=CC[C@H]3c3cncc(F)c3)C2)c(F)cn1` [Compound 65, (S)-5-(5-fluoro-4-((1-(5-(5-fluoropyridin-3-yl)-4,5-dihydro-1H-pyrazole-1-carbonyl)azetidin-3-yl)oxy)pyridin-2-yl)-1,4-dimethyl-1H-pyrazole-3-carbonitrile] the figure was 0.1 to 100 nM; with `CCn1nc(C)c(-c2cc(OC3CN(C(=O)N4N=CC[C@H]4c4cc(F)cc(C#N)c4)C3)c(F)cn2)c1C` [Compound 52, (S)-3-(1-(3-((2-(1-ethyl-3,5-dimethyl-1H-pyrazol-4-yl)-5-fluoropyridin-4-yl)oxy)azetidine-1-carbonyl)-4,5-dihydro-1H-pyrazol-5-yl)-5-fluorobenzonitrile], 0.1 to 100 nM; with `Cn1nccc1-c1cc(OC2CN(C(=O)N3N=CC[C@H]3c3cc(F)cc(C#N)c3)C2)c(F)cn1` [Compound 7, (S)-3-fluoro-5-(1-(3-((5-fluoro-2-(1-methyl-1H-pyrazol-5-yl)pyridin-4-yl)oxy)azetidine-1-carbonyl)-4,5-dihydro-1H-pyrazol-5-yl)benzonitrile], 0.1 to 100 nM.
`Cc1csc(C2CC=NN2C(=O)N2CC(Oc3cc(-c4c(C)cnn4C)ncc3F)C2)n1` (stereo not shown) [Compound 97, (3-((2-(1,4-dimethyl-1H-pyrazol-5-yl)-5-fluoropyridin-4-yl)oxy)azetidin-1-yl)(5-(4-methylthiazol-2-yl)-4,5-dihydro-1H-pyrazol-1-yl)methanone]: the EC50 lay in the range of 100 to 1000 nM.
For `Cc1nn(-c2cc(OC3CN(C(=O)N4N=CC[C@H]4c4cccc(F)c4)C3)c(F)cn2)c(C)c1C(N)=O` [Compound 73, (S)-1-(5-fluoro-4-((1-(5-(3-fluorophenyl)-4,5-dihydro-1H-pyrazole-1-carbonyl)azetidin-3-yl)oxy)pyridin-2-yl)-3,5-dimethyl-1H-pyrazole-4-carb oxamide], the EC50 was 0.1 to 100 nM.
With `Cn1cc(-c2cc(OC3CN(C(=O)N4N=CC[C@H]4c4cc(F)cc(C#N)c4)C3)c(F)cn2)nn1` [Compound 14, (S)-3-fluoro-5-(1-(3-((5-fluoro-2-(1-methyl-1H-1,2,3-triazol-4-yl)pyridin-4-yl)oxy)azetidine-1-carbonyl)-4,5-dihydro-1H-pyrazol-5-yl)benzonitrile], the EC50 lay within 100 to 1000 nM.
Regarding `Cc1nn(-c2cc(OC3CN(C(=O)N4N=CCC4c4cc(F)cc(F)c4F)C3)c(F)cn2)c(C)c1S(N)(=O)=O` (stereo not shown) [Compound 112, 1-(5-fluoro-4-((1-(5-(2,3,5-trifluorophenyl)-4,5-dihydro-1H-pyrazole-1-carbonyl)azetidin-3-yl)oxy)pyridin-2-yl)-3,5-dimethyl-1H-pyrazole-4-sulfonamide], the concentration for a half-maximal effect (EC50) fell in the range of 0.1 to 100 nM.
As to `Cc1cnn(C)c1-c1cc(OC2CN(C(=O)N3N=CCC3c3cscn3)C2)c(F)cn1` (stereo not shown) [Compound 95, (3-((2-(1,4-dimethyl-1H-pyrazol-5-yl)-5-fluoropyridin-4-yl)oxy)azetidin-1-yl)(5-(thiazol-4-yl)-4,5-dihydro-1H-pyrazol-1-yl)methanone], the half-maximal effective concentration (EC50) lay within 0.1 to 100 nM.
The result for `Cc1cnn(C)c1-c1cc(OC2CN(C(=O)N3N=CCC3c3nccs3)C2)c(F)cn1` (stereo not shown) [Compound 92, (3-((2-(1,4-dimethyl-1H-pyrazol-5-yl)-5-fluoropyridin-4-yl)oxy)azetidin-1-yl)(5-(thiazol-2-yl)-4,5-dihydro-1H-pyrazol-1-yl)methanone] reads 0.1 to 100 nM.
With `Cc1nn(-c2cc(OC3CN(C(=O)N4N=CC[C@H]4c4cc(F)cc(F)c4)C3)c(Cl)cn2)c(C)c1C#N` [Compound 159, (S)-1-(5-chloro-4-((1-(5-(3,5-difluorophenyl)-4,5-dihydro-1H-pyrazole-1-carbonyl)azetidin-3-yl)oxy)pyridin-2-yl)-3,5-dimethyl-1H-pyrazole-4-carbonitrile] the figure was 0.1 to 100 nM.
With `Cc1ccn(C)c(=O)c1-c1cc(OC2CN(C(=O)N3N=CC[C@H]3c3cc(F)cc(F)c3)C2)c(F)cn1` [Compound 168, (S)-4-((1-(5-(3,5-difluorophenyl)-4,5-dihydro-1H-pyrazole-1-carbonyl)azetidin-3-yl)oxy)-5-fluoro-1′,4′-dimethyl-[2,3′-bipyridin]-2′(1′H)-one] the figure was 1000 to 10000 nM.
Take `COc1nccc(C)c1-c1cc(OC2CN(C(=O)N3N=CC[C@H]3c3cc(F)cc(F)c3)C2)c(F)cn1` [Compound 165, (S)-(5-(3,5-difluorophenyl)-4,5-dihydro-1H-pyrazol-1-yl)(3-((5-fluoro-2′-methoxy-4′-methyl-[2,3′-bipyridin]-4-yl)oxy)azetidin-1-yl)methanone]: the EC50 was 100 to 1000 nM.
The result for `Cn1nccc1-c1csc(OC2CN(C(=O)N3N=CC[C@H]3c3cc(F)cc(F)c3)C2)n1` [Compound 147, (S)-(5-(3,5-difluorophenyl)-4,5-dihydro-1H-pyrazol-1-yl)(3-((4-(1-methyl-1H-pyrazol-5-yl)thiazol-2-yl)oxy)azetidin-1-yl)methanone] reads 0.1 to 100 nM; that for `Cn1ncc(C#N)c1-c1ccc(F)c(OC2CN(C(=O)N3N=CC[C@H]3c3cc(F)cc(C#N)c3)C2)n1` [Compound 40, (S)-5-(6-((1-(5-(3-cyano-5-fluorophenyl)-4,5-dihydro-1H-pyrazole-1-carbonyl)azetidin-3-yl)oxy)-5-fluoropyridin-2-yl)-1-methyl-1H-pyrazole-4-carbonitrile], 0.1 to 100 nM; that for `Cc1cnn(C)c1-c1ccc(F)c(OC2CN(C(=O)N3N=CC[C@H]3c3cc(F)cc(C#N)c3)C2)c1` [Compound 60, (S)-3-(1-(3-(5-(1,4-dimethyl-1H-pyrazol-5-yl)-2-fluorophenoxy)azetidine-1-carbonyl)-4,5-dihydro-1H-pyrazol-5-yl)-5-fluorobenzonitrile], 0.1 to 100 nM.
The result for `Cc1cnn(C)c1-c1cc(OC2CN(C(=O)C3=NNCC3c3cc(F)cc(F)c3)C2)c(F)cn1` (stereo not shown) [Compound 161, (4-(3,5-difluorophenyl)-4,5-dihydro-1H-pyrazol-3-yl)(3-((2-(1,4-dimethyl-1H-pyrazol-5-yl)-5-fluoropyridin-4-yl)oxy)azetidin-1-yl)methanone] reads 0.1 to 100 nM.
As for `Cc1cnn(C)c1-c1cc(OC2CN(C(=O)N3N=CCC3c3cccnc3)C2)c(F)cn1` (stereo not shown) [Compound 99, (3-((2-(1,4-dimethyl-1H-pyrazol-5-yl)-5-fluoropyridin-4-yl)oxy)azetidin-1-yl)(5-(pyridin-3-yl)-4,5-dihydro-1H-pyrazol-1-yl)methanone], the EC50 fell in the range of 0.1 to 100 nM.
Turning to `Cc1cnn(C)c1-c1nc(OC2CN(C(=O)N3N=CC[C@H]3c3cc(F)cc(F)c3)C2)sc1CO` [Compound 157, (S)-(5-(3,5-difluorophenyl)-4,5-dihydro-11H-pyrazol-1-yl)(3-((4-(1,4-dimethyl-1H-pyrazol-5-yl)-5-(hydroxymethyl)thiazol-2-yl)oxy)azetidin-1-yl)methanone], the EC50 is 1000 to 10000 nM.
